Results taken from ChEMBL document CHEMBL4689842, “EUbOPEN Chemogenomics Library wave 1” (2021).

What was measured:
Assay type in all cases: toxicity, cell-based
Fibroblast = assay: Incucyte cell viability with human fibroblast; settings: 10 µM, compound concentration 10 uM
HEK-293T = assay: Incucyte cell viability with HEK293T; settings: human, 10 µM, compound concentration 10 uM
U2OS = assay: Incucyte cell viability with U2OS; settings: human, 10 µM, compound concentration 10 uM
[1] = 0 h, replicate number 1, timepoint 0 hours
[2] = 6 h, replicate number 1, timepoint 6 hours
[3] = 6 h, replicate number 2, timepoint 6 hours
[4] = 12 h, replicate number 1, timepoint 12 hours
[5] = 12 h, replicate number 2, timepoint 12 hours
[6] = 18 h, replicate number 1, timepoint 18 hours
[7] = 18 h, replicate number 2, timepoint 18 hours
[8] = 24 h, replicate number 1, timepoint 24 hours
[9] = 24 h, replicate number 2, timepoint 24 hours
[10] = 0 h, replicate number 2, timepoint 0 hours
Further: filed as whole numbers so only -1 and 0 and 1 occur.

| Compound | Growth Rate (Fibroblast; [1]) | Growth Rate (Fibroblast; [2]) | Growth Rate (Fibroblast; [3]) | Growth Rate (Fibroblast; [4]) | Growth Rate (Fibroblast; [5]) | Growth Rate (Fibroblast; [6]) | Growth Rate (Fibroblast; [7]) | Growth Rate (Fibroblast; [8]) | Growth Rate (Fibroblast; [9]) | Growth Rate (HEK-293T; [1]) | Growth Rate (HEK-293T; [2]) | Growth Rate (HEK-293T; [4]) | Growth Rate (HEK-293T; [6]) | Growth Rate (HEK-293T; [8]) | Growth Rate (U2OS; [1]) | Growth Rate (U2OS; [3]) | Growth Rate (U2OS; [4]) | Growth Rate (U2OS; [6]) | Growth Rate (U2OS; [8]) | Growth Rate (U2OS; [9]) | other results |
| --- | --- | --- | --- | --- | --- | --- | --- | --- | --- | --- | --- | --- | --- | --- | --- | --- | --- | --- | --- | --- | --- |
| CCCCc1nc(Cl)c(CO)n1Cc1ccc(-c2ccccc2-c2nn[nH]n2)cc1 [LOSARTAN] | 0 | 1 | 0 | 1 | 0 | 1 | 0 | 1 | 0 | 0 | 1 | 1 | 1 | 1 | 0 | 1 | 1 | 0 | 0 | 1 | Growth Rate (HEK-293T; [3]): 0; Growth Rate (HEK-293T; [5]): 0; Growth Rate (HEK-293T; [7]): 0; Growth Rate (HEK-293T; [9]): 0; Growth Rate (U2OS; [2]): 0; Growth Rate (U2OS; [7]): 1 |
| O=C(NOC[C@H](O)CO)c1ccc(F)c(F)c1Nc1ccc(I)cc1F [MIRDAMETINIB] | – | 1 | 0 | 1 | – | 1 | – | 1 | – | 0 | – | – | – | – | – | – | 0 | 0 | 0 | – | Growth Rate (Fibroblast; [10]): 0; Growth Rate (HEK-293T; [10]): 1; Growth Rate (HEK-293T; [9]): 1; Growth Rate (U2OS; [10]): 0; Growth Rate (U2OS; [2]): 0 |
| CO[C@@H]1COCC[C@@H]1N[C@@H]1CC[C@@](C(=O)N2CCc3ncc(C(F)(F)F)cc3C2)(C(C)C)C1 [MK-0812] | 0 | 1 | 0 | 1 | – | 1 | 0 | 1 | 0 | 0 | 1 | 1 | 1 | 1 | 0 | 0 | 1 | 1 | 1 | – | Growth Rate (Fibroblast; [10]): 1; Growth Rate (HEK-293T; [3]): 0 |
| CC1(C)CNc2cc(NC(=O)c3cccnc3NCc3ccncc3)ccc21.O=P(O)(O)O.O=P(O)(O)O [MOTESANIB DIPHOSPHATE] | 0 | – | 0 | 1 | 0 | 1 | 0 | 1 | 0 | 0 | – | – | – | – | 0 | 0 | 1 | 1 | 1 | 0 | Growth Rate (U2OS; [10]): 1; Growth Rate (U2OS; [2]): 1 |
| N#CC1(c2ccccn2)CCN(Cc2cc(C(=O)N3CCCC3)c(=O)n3ccccc23)CC1 [MSD-M1PAM-NC] | 0 | – | 1 | 1 | – | 1 | 0 | 0 | – | 1 | 1 | 0 | 0 | 0 | – | – | 0 | 0 | 0 | 1 | Growth Rate (HEK-293T; [10]): 0; Growth Rate (HEK-293T; [3]): 0; Growth Rate (U2OS; [10]): 0 |
| CCCc1c(-c2ccc(O)cc2)nn(-c2ccc(O)cc2)c1-c1ccc(O)cc1 [PROPYLPYRAZOLETRIOL] | 0 | 0 | – | 0 | 1 | 0 | 1 | 0 | 1 | 0 | 1 | 1 | 1 | 0 | 1 | 1 | 1 | 0 | 1 | – | Growth Rate (HEK-293T; [9]): 1; Growth Rate (U2OS; [10]): 0; Growth Rate (U2OS; [7]): 1 |
| COc1cccc(OC)c1-c1cc(C(=O)NC2(C(=O)O)C3CC4CC(C3)CC2C4)nn1-c1ccnc2cc(Cl)ccc12 (stereo not given) [REMINERTANT] | 0 | – | 1 | 1 | 0 | 1 | 0 | 1 | 0 | 0 | 0 | 0 | 0 | 0 | 1 | 1 | 1 | 0 | 0 | 1 | Growth Rate (HEK-293T; [3]): 1; Growth Rate (HEK-293T; [5]): 1; Growth Rate (U2OS; [7]): 1 |
| CO[C@H]1/C=C/O[C@@]2(C)Oc3c(C)c(O)c4c(O)c(c(/C=N/N5CCN(C)CC5)c(O)c4c3C2=O)NC(=O)/C(C)=C\C=C\[C@H](C)[C@H](O)[C@@H](C)[C@@H](O)[C@@H](C)[C@H](OC(C)=O)[C@@H]1C [RIFAMPIN] | 0 | 0 | – | 0 | – | 0 | – | 0 | – | 0 | 1 | 1 | 1 | 1 | 0 | 1 | 1 | 1 | 0 | 1 | – |
| Cc1nc2sccn2c(=O)c1CCN1CCC(=C(c2ccc(F)cc2)c2ccc(F)cc2)CC1 [RITANSERIN] | 0 | 0 | – | 0 | – | 0 | – | 0 | – | 0 | 1 | 1 | 0 | 0 | 1 | – | 1 | 1 | 1 | – | Growth Rate (HEK-293T; [3]): 0; Growth Rate (HEK-293T; [5]): 0; Growth Rate (U2OS; [10]): 0 |
| C[C@@H]1CCc2ncc(F)cc2[C@H]2CCCN2c2ccn3ncc(c3n2)C(=O)N1 [SELITRECTINIB] | – | 1 | 0 | 1 | 0 | 1 | 0 | 1 | 0 | 0 | 0 | 0 | 0 | 0 | 1 | – | 1 | 0 | 1 | 0 | Growth Rate (Fibroblast; [10]): 0; Growth Rate (HEK-293T; [10]): 1; Growth Rate (HEK-293T; [7]): 1; Growth Rate (U2OS; [2]): 0; Growth Rate (U2OS; [5]): 0 |
| COc1cccc(CNC(=O)c2nc3scc(CN(C)Cc4ccccc4)c3c(=O)[nH]2)c1 [T-26f] | 0 | 0 | – | 0 | 1 | 0 | 1 | 0 | 1 | 0 | – | – | – | – | 0 | – | 1 | 1 | 1 | – | Growth Rate (HEK-293T; [10]): 1; Growth Rate (U2OS; [2]): 1; Growth Rate (U2OS; [7]): 0 |
